Reference: patent publication US5686448A (priority 1995, dated 1997)
Where two headings read alike, the source gives them in different places.

Legend:
Vero cells = test system: Vero cells
Protocol: To determine the toxicity level of the drug, all three cell lines--RK-13, Vero cells, and WISH cells--were used. In the toxicity experiments, the effect of the drug on the uninfected cell for a range of periods of time was determined. Accordingly, cultures were incubated with and without the drug. The time of exposure was from one to seven hours. A comparison was then made between the drug tested cultures and the control cultures. After each period of incubation, the cells were washed and fresh media was added to the cells. The cell viability was then determined by dividing these cultures and having them grow into new cell cultures.
At the end of the incubation period, the cultures were washed twice with sterile PBS (Dulbecco). Fresh medium was added to each of the cultures. The cultures were then incubated for an additional 24 hours.
Healthy confluent monolayer cell cultures were overlaid with 1 ml of the drug and incubated for 48 hours at 37° C. and then stained. Cell cultures with maintenance media were used as controls.

RK-13 cells = conditions: 25 mg/ml, 48 hours
HSV-2 = conditions: for Percent Reduction of lesions / # of lesions: TEAC ointment from 12-16 hours p.i.
Protocol: Female guinea pigs (obtained from Charles River, Inc.) weighing approximately 200 g were used as a model for HSV-2 skin lesions. The animals were anesthetized with 0.15 ml of Ketamine-Rompum mixture. The animals were first shaved on their back with a hair clipper and then treated with a depilatory cream (Nair). The denuded area was washed well and then dried. A tuberculin tyne was washed with ethanol and air dried.
Two methods were tried for infecting the animals with the virus. In one, a drop of HSV-2 suspension was placed on the skin and the skin was punctured with the tyne. In the second method, the tyne was dipped in the virus suspension before puncturing the skin.
In the first experiment, each of 3 guinea pigs was infected on three areas of their backs. At 3 days post infection, treatment was begun on one side of each animal, leaving the other side untreated as a control.
The animals were examined daily for vesicles (V), crust (C) and for erythema (R) alone.
In the next experiment 6 guinea pigs were infected in the same manner as the initial 3 guinea pigs. Treatment was begun 12-16 hours post infection. […] Lesions showing an erythematous base with either a blister or a crust on top were considered to HSV specific. […] Both the control animals and treated animals were carefully read in the same manner.

[1] = test system: RK-13, Vero and WISH cells
HSV-1 (McKrae strain) = conditions: for No. of Plaques: virus controls 270, 270, 252
Protocol: All cultures were incubated at 37° C. in a 5% CO2 humidified atmosphere. The cultures were stained with crystal violet to aid in counting the plaque.

HSV-2 (333 strain) = conditions: for % plaque inhibition: 2 hours pre-incubation
Protocol: In Series No. 1 of Example No. 1, monolayer cultures of Vero, RK-13 (rabbit kidney), and WISH (human amnion, Hayflick) cells were used in the experiments of Example No. 1. The cells were grown in Basal Minimal Eagle's Media supplemented with 5% fetal calf serum, 1% glutamine, sodium bicarbonate and antibiotics. Cultures were maintained in a maintenance media that was the same media, except that the maintenance media contained 2% fetal calf serum. An F Strain of HSV-1 was chosen because it is a well-known prototype of HSV-1. This F Strain can be obtained from the American Type Culture Collection (ATCC), 12301 Parklawn Drive, Rockville, Md. 20852, at which it is identified as ATC-VR 733. For studies with HSV-2, a G strain of HSV-2 (ATCC-VR 734) and a 333 strain of HSV-2 were selected. These strains also can be obtained from the ATCC.
Accordingly, the pre-inoculation experiments measured the effect of the drug on a cell that was already infected with the virus. The pre-incubation experiments measured the cell cultures that were treated with the drug prior to the inoculation to determine if these cells then would be permissive or non-permissive to the tested virus. In these experiments, plaque reduction assays provided a quantitative measure of antiviral activity and was deemed to be reliable and objective.
In the pre-incubation experiments, the media was either decanted or gently aspirated from the cultures. After decanting or aspirating, 1 ml of the drug dilution plus maintenance media was added to the cultures. The cultures that served as virus controls or cell controls received 2 ml of maintenance media. After the pre-treatment period, the media was again aspirated and the cell cultures were infected with the virus.
When this occurred, the cultures were fixed and stained with crystal violet. The plaque were then carefully counted under the microscope. By such a counting and careful comparison, percentages of plaque inhibition in the treated cultures were then calculated.
The 333 strain, which can be obtained from ATCC, was used.

[2] = 5, 2.5, 1.25 mg/culture overnight
[3] = 5, 2.5, 1.25 mg/culture, additional 24 hours in fresh medium

CC[N+](CC)(CC)CC.[Cl-] [TEAC, tetraethylammonium chloride]
toxicity (Vero cells; 25 mg/ml, 48 hours): slight toxicity | change in morphology of cells (Vero cells; [2]): No change in the morphology of the cells | growth or general appearance vs untreated (Vero cells; [3]): no apparent difference in the growth or general appearance | toxicity (RK-13 cells): toxicity | Percent Reduction of lesions (HSV-2; day 3 P.I.): 21% | # of lesions (HSV-2; day 3 P.I., control 19): 15 | Percent Reduction of lesions (HSV-2; day 4 P.I.): 27.5% | # of lesions (HSV-2; day 4 P.I., control 40): 29 | Percent Reduction of lesions (HSV-2; day 5 P.I.): 58.5% | # of lesions (HSV-2; day 5 P.I., control 41): 17 | Percent Reduction of lesions (HSV-2; day 6 P.I.): 58.3% | # of lesions (HSV-2; day 6 P.I., control 36): 15 | lesion appearance (HSV-2; first experiment, 4 times daily from 3 days p.i.): did not crust but appeared to be faded by 6 days post infection | dermatitis (HSV-2; first experiment, day 4 after treatment, probably due to TEAC or its vehicle or both): a rash appeared | number and size of lesions (HSV-2; given 12-16 hours p.i.): significant reduction in the number of lesions, but also in their size | rupture and crusting of lesions (HSV-2; given 12-16 hours p.i.): neither ruptured nor crusted | vesicle formation (HSV-2; given 12-16 hours p.i.): less vesicles formed | vesicles (HSV-2; given 3 days p.i.): reduced in elevation and eventually resolved | number and appearance of lesions vs control (HSV-2; treatment from 12-16 hours p.i.): marked difference between the two groups | reversibility of toxicity (thin) / morphology changes ([1]; drug removed, fresh media added): totally reversible | change in morphology or cytopathic effect ([1]; one to seven hours exposure): No change in morphology or cytopathic effect | rate of growth vs cultures without TEAC ([1]; one to seven hours exposure): no difference in the rate of growth | toxicity to cells ([1]; one to seven hours exposure): not toxic to cells | enhancement of plaque (HSV-1 (McKrae strain); 12.5 mg/ml): apparent enhancement of plaque | No. of Plaques (HSV-1 (McKrae strain); 12.5 mg/ml): 300 | monolayer appearance (HSV-1 (McKrae strain); 25 mg/ml): thinned out appearance | No. of Plaques (HSV-1 (McKrae strain); 25 mg/ml): 0 | plaque inhibition (HSV-1 (McKrae strain); 12.5, 6.25, 3.125 mg/ml): not significantly effective in achieving plaque inhibition | change in morphology of cells (WISH cells; [2]): No change in the morphology of the cells | growth or general appearance vs untreated (WISH cells; [3]): no apparent difference in the growth or general appearance | sensitivity to TEAC vs HSV-1 (HSV-2 (333 strain); 333 strain): even more sensitive to TEAC than HSV-1 | % plaque inhibition (HSV-2 (333 strain); 12.5 mg/culture): 25% | % plaque inhibition (HSV-2 (333 strain); 25 mg/culture): 42% | % plaque inhibition (HSV-2 (333 strain); 50 mg/culture): 56% | inhibition of in vitro replication (HSV-2 (333 strain); HSV-2, summary): inhibited the in vitro replication of HSV-1 and HSV-2 | crusting (HSV type 1; Patient L, 2.9 cc, normally 3 weeks): on the 7th day after the treatment, the crusting had all disappeared | labialis lesion (HSV type 1; Patient M, 1% TEAC ointment resumed, three days later): the lesion had not spread and had now crusted | clearing of lesions (HSV type 1; Patient M, 1% TEAC ointment, five days later): cleared in a shorter time period than usual
